{"source": "patent US11795177B2", "about": "“Substituted quinoline analogs as aldehyde dehydrogenase 1A1 (ALDH1A1) inhibitors” (THE UNITED STATES OF AMERICA, AS REPRESENTED BY THE …, priority 2017, dated 2023)"}
{"test_system": "MIA PaCa-2 cells", "test": "MIA PaCa2 cell-based assay (1,536-well high-content imaging ALDEFLUOR assay)", "design": "species or system human", "conditions": "Homo sapiens, 0.5 h, ALDEFLUOR BAAA substrate 500 nM, 30 minutes", "experimental": "Example 359. MIA PaCa2 Cell-Based Assay (In Vitro Assay)\n1,536-Well High-Content Imaging ALDEFLUOR Assay\nThe ALDEFLUOR™ kit was purchased from […] Technologies (Vancouver, Canada; #01700). MIA PaCa-2 cells (5 μL; 1,000 cells/well) were dispensed into black, optical quality (cyclic olefin copolymer) clear bottom, medium binding TC treated 1,536-well plates (Aurora Microplates, Whitefish Mont.) using a Multidrop Combi dispenser (ThermoFisher) and incubated overnight (37° C., 5% CO2, 85% RH). Media (RPMI 1640 (Life Technologies, Carlsbad, Calif.), supplemented with 2 mM L-Glutamine (Life Technologies), 10% HyClone™ fetal bovine serum (FBS, GE Healthcare, Piscataway, N.J.) and 100 U/mL penicillin and 100 μg/mL streptomycin (Life Technologies)) was subsequently removed by centrifuging plates upside down using a plate adaptor to collect media. A solution of BAAA substrate ([…] Technologies) and Hoechst 33342 (ThermoFisher, final concentrations of 500 nM and 0.5 nM, respectively) in ALDEFLUOR™ buffer ([…] Technologies #01700) was dispensed onto cells using a Multidrop Combi followed by immediate transfer (23 nL) of compound or control solutions using a Wako Pin-tool (final percentage of DMSO in the cell plates was 0.5%). Unless otherwise noted, all compounds were assayed as 16-point dilutions spanning a final concentration range of 1.4 nM to 47.8 μM. The neutral and positive assay controls were DMSO and DEAB (4.6 μM), respectively. Cells were incubated for 30 minutes or the indicated amount of time at 37° C., 5% CO2, 85% RH to allow the conversion of BAAA into BAA. Supernatant was subsequently removed by centrifugation as described above, then ALDEFLUOR™ buffer (3 μl) was dispensed by Multidrop Combi before imaging on an IN Cell 2200 (GE Healthcare).\nThe above assay was modified for an online robotic screening system. After cell plating and overnight incubation, 4 μL of media were removed using a 64-tip metal aspirator head on a Wako aspirator station, leaving 1 μL remaining in the well, followed by a 4 μL dispense of BAAA and Hoechst 33342 in ALDEFLUOR™ buffer, for a final concentration of 500 nM and 0.5 nM, respectively Immediately following the dispense, 23 nL of compound or control solutions were transferred using a Wako Pin-tool. Cells were incubated for 30 minutes at 37° C., 5% CO2, 85% RH, followed by a 4 μL media removal using the Wako aspirator, and a subsequent 3 μL addition of ALDEFLUOR™ buffer. Plates were then immediately read on the IN Cell 2200 as described below.\nImage Acquisition and Analysis\nFor images captured on the IN Cell 2200 widefield automated microscope, a 10×0.45 NA Plan Apo objective lens was used to capture the entire well of the 1,536-well plate using standard DAPI (390/18×, 432/48 m) and FITC (475/28×, 525/48 m) filter sets at 50 msec and 100 msec exposures, respectively. Images were subsequently analyzed using IN Cell Investigator v1.6.2 analysis software's canned Multi-Target Analysis algorithm (GE Healthcare). Hoechst stained nuclei were identified using top hat segmentation with a minimum area of 75 μm^2 and sensitivity of 93. BAA-retaining cells captured via FITC channel, were identified using multiscale top hat segmentation with a minimum area of 100 μm^2 and a sensitivity setting of 16. […] Data were plotted using GraphPad Prism software (GraphPad, San Diego, Calif.).", "units": {"IC50": "nM"}}
{"smiles": "CS(=O)(=O)N1CCN(C(=O)c2cnc3ccc(F)cc3c2N2CCC(CO)(c3ccccc3)CC2)CC1", "note": "[Example 256, (6-fluoro-4-(4-(hydroxymethyl)-4-phenylpiperidin-1-yl)quinolin-3-yl)(4-(methylsulfonyl)piperazin-1-yl)methanone]", "IC50": "1000 to 10000"}
{"smiles": "O=C(c1cnc2ccc(F)cc2c1N1CCC(Cc2ccccc2)CC1)N1CCN(C(=O)C2CC2)CC1", "note": "[Example 200, (4-(4-benzylpiperidin-1-yl)-6-fluoroquinolin-3-yl)(4-(cyclopropanecarbonyl)piperazin-1-yl)methanone]", "IC50": "> 10000"}
{"smiles": "CS(=O)(=O)N1CCN(C(=O)c2cnc3ccc(F)cc3c2-c2ccc(C3(C#N)CC3)cc2)CC1", "note": "[Example 210, 1-(4-(6-fluoro-3-(4-(methylsulfonyl)piperazine-1-carbonyl)quinolin-4-yl)phenyl)cyclopropanecarbonitrile]", "IC50": "< 500"}
{"smiles": "N#CC1(c2ccccc2)CCN(c2c(C(=O)N3CCN(C(=O)C4CC4)CC3)cnc3ccsc23)CC1", "note": "[Example 282, 1-(6-(4-(cyclopropanecarbonyl)piperazine-1-carbonyl)thieno[3,2-b]pyridin-7-yl)-4-phenylpiperidine-4-carbonitrile]", "IC50": "< 500"}
{"smiles": "CS(=O)(=O)N1CCN(C(=O)c2cnc3ccc(F)cc3c2N2CCC(C#N)(c3ccc(F)cc3)CC2)CC1", "note": "[Example 279, 1-(6-fluoro-3-(4-(methylsulfonyl)piperazine-1-carbonyl)quinolin-4-yl)-4-(4-fluorophenyl)piperidine-4-carbonitrile]", "IC50": "< 500"}
{"smiles": "CS(=O)(=O)N1CCN(C(=O)c2cnc3ccc(F)cc3c2N2CCC3(CC2)CC(=O)c2ccccc23)CC1", "note": "[Example 199, 1′-(6-fluoro-3-(4-(methylsulfonyl)piperazine-1-carbonyl)quinolin-4-yl)spiro[indene-1,4′-piperidin]-3(2H)-one]", "IC50": "1000 to 10000"}
{"smiles": "O=C(c1cnc2ccc(F)cc2c1N1CCC2(CC1)CC2)N1CCN(C(=O)C2CC2)CC1", "note": "[Example 59, (4-(cyclopropanecarbonyl)piperazin-1-yl)(6-fluoro-4-(6-azaspiro[2.5]octan-6-yl)quinolin-3-yl)methanone]", "IC50": "> 10000"}
{"smiles": "CS(=O)(=O)N1CCN(C(=O)c2cnc3ccc(F)cc3c2-c2ccc(C3(C#N)CCC3)cc2)CC1", "note": "[Cpd. 308, 1-(4-(6-fluoro-3-(4-(methylsulfonyl)piperazine-1-carbonyl)quinolin-4-yl)phenyl)cyclobutanecarbonitrile]", "IC50": "< 500"}
{"smiles": "CS(=O)(=O)N1CCN(C(=O)c2cnc3ccc(F)cc3c2N2CCC3(CC2)Cc2ccccc2C3=O)CC1", "note": "[Example 201, 1′-(6-fluoro-3-(4-(methylsulfonyl)piperazine-1-carbonyl)quinolin-4-yl)spiro[indene-2,4′-piperidin]-1(3H)-one]", "IC50": "1000 to 10000"}
{"smiles": "O=C(c1cnc2ccc(F)cc2c1N1CCC2(CC1)OCCO2)N1CCN(C(=O)C2CC2)CC1", "note": "[Example 31, (4-(cyclopropanecarbonyl)piperazin-1-yl)(6-fluoro-4-(1,4-dioxa-8-azaspiro[4.5]decan-8-yl)quinolin-3-yl)methanone]", "IC50": "1000 to 10000"}
{"smiles": "O=C(c1cnc2ccc(F)cc2c1N1CCC(F)(F)CC1)N1CCN(C(=O)C2CC2)CC1", "note": "[Example 63, (4-(cyclopropanecarbonyl)piperazin-1-yl)(4-(4,4-difluoropiperidin-1-yl)-6-fluoroquinolin-3-yl)methanone]", "IC50": "> 10000"}
{"smiles": "CC1(C#N)CCN(c2c(C(=O)N3CCN(S(C)(=O)=O)C(C)(C)C3)cnc3ccc(F)cc23)CC1", "note": "[Example 229, 1-(3-(3,3-dimethyl-4-(methylsulfonyl)piperazine-1-carbonyl)-6-fluoroquinolin-4-yl)-4-methylpiperidine-4-carbonitrile]", "IC50": "> 10000"}
{"smiles": "N#CC1CCN(c2c(C(=O)N3CCN(C(=O)C4CC4)CC3)cnc3ccc(F)cc23)CC1", "note": "[Cpd. 302, 1-(3-(4-(cyclopropanecarbonyl)piperazine-1-carbonyl)-6-fluoroquinolin-4-yl)piperidine-4-carbonitrile]", "IC50": "> 10000"}
{"smiles": "CS(=O)(=O)N1CCN(C(=O)c2cnc3ccsc3c2N2CCC(C#N)(c3ccccc3)CC2)CC1", "note": "[Example 285, 1-(6-(4-(methylsulfonyl)piperazine-1-carbonyl)thieno[3,2-b]pyridin-7-yl)-4-phenylpiperidine-4-carbonitrile]", "IC50": "< 500"}
{"smiles": "N#CC1(c2ccccc2)CCN(c2c(C(=O)Nc3cnn(CC(N)=O)c3)cnc3ccc(F)cc23)CC1", "note": "[Cpd. 352, N-(1-(2-amino-2-oxoethyl)-1H-pyrazol-4-yl)-4-(4-cyano-4-phenylpiperidin-1-yl)-6-fluoroquinoline-3-carboxamide]", "IC50": "< 500"}
{"smiles": "CC1(C#N)CCN(c2c(C(=O)N3CCN(C(=O)C4CC4)CC3)cnc3ccsc23)CC1", "note": "[Example 233, 1-(6-(4-(cyclopropanecarbonyl)piperazine-1-carbonyl)thieno[3,2-b]pyridin-7-yl)-4-methylpiperidine-4-carbonitrile]", "IC50": "500 to 1000"}
{"smiles": "O=C(c1cnc2ccc(F)cc2c1N1CCC2(CCCO2)CC1)N1CCN(C(=O)C2CC2)CC1", "note": "[Example 66, (4-(cyclopropanecarbonyl)piperazin-1-yl)(6-fluoro-4-(1-oxa-8-azaspiro[4.5]decan-8-yl)quinolin-3-yl)methanone]", "IC50": "1000 to 10000"}
{"smiles": "O=C(c1cnc2cc(F)c(F)cc2c1N1CCC2(CC1)OCCO2)N1CCN(C(=O)C2CC2)CC1", "note": "[Example 122, (4-(cyclopropanecarbonyl)piperazin-1-yl)(6,7-difluoro-4-(1,4-dioxa-8-azaspiro[4.5]decan-8-yl)quinolin-3-yl)methanone]", "IC50": "1000 to 10000"}
{"smiles": "CS(=O)(=O)N1CCN(C(=O)c2cnc3ccc(F)cc3c2N2CCC(C#N)CC2)CC1", "note": "[Cpd. 305, 1-(6-fluoro-3-(4-(methylsulfonyl)piperazine-1-carbonyl)quinolin-4-yl)piperidine-4-carbonitrile]", "IC50": "> 10000"}
{"smiles": "O=C(c1cnc2ccc(Cl)cc2c1N1CCC2(CC1)OCCO2)N1CCN(C(=O)C2CC2)CC1", "note": "[Example 45, (6-chloro-4-(1,4-dioxa-8-azaspiro[4.5]decan-8-yl)quinolin-3-yl)(4-(cyclopropanecarbonyl)piperazin-1-yl)methanone]", "IC50": "1000 to 10000"}
{"smiles": "COc1ccc2c(N3CCC4(CC3)OCCO4)c(C(=O)N3CCN(C(=O)C4CC4)CC3)cnc2c1", "note": "[Example 47, (4-(cyclopropanecarbonyl)piperazin-1-yl)(7-methoxy-4-(1,4-dioxa-8-azaspiro[4.5]decan-8-yl)quinolin-3-yl)methanone]", "IC50": "1000 to 10000"}
{"smiles": "CS(=O)(=O)N1CCN(C(=O)c2cnc3ccsc3c2-c2ccc(C3(C#N)CC3)cc2)CC1", "note": "[Example 286]", "IC50": "< 500"}
{"smiles": "CC(C)(C#N)c1ccc(-c2c(C(=O)N3CCN(S(C)(=O)=O)CC3)cnc3ccc(F)cc23)c(F)c1", "note": "[Cpd. 311, 2-(3-fluoro-4-(6-fluoro-3-(4-(methylsulfonyl)piperazine-1-carbonyl)quinolin-4-yl)phenyl)-2-methylpropanenitrile]", "IC50": "< 500"}
{"smiles": "CS(=O)(=O)N1CCN(C(=O)c2cnc3ccc(F)cc3c2N2CCC(C#N)(c3ccc(Cl)cc3)CC2)CC1", "note": "[Example 275, 4-(4-chlorophenyl)-1-(6-fluoro-3-(4-(methylsulfonyl)piperazine-1-carbonyl)quinolin-4-yl)piperidine-4-carbonitrile]", "IC50": "< 500"}
{"smiles": "CC(C)(C)c1ccc(-c2c(C(=O)N3CCN(C(=O)C4CC4)CC3)cnc3ccc(F)cc23)cc1", "note": "[Example 84, (4-(4-(tert-butyl)phenyl)-6-fluoroquinolin-3-yl)(4-(cyclopropanecarbonyl)piperazin-1-yl)methanone]", "IC50": "< 500"}
{"smiles": "O=C(c1cnc2ccc(F)cc2c1N1CCC2(CCCC2)CC1)N1CCN(C(=O)C2CC2)CC1", "note": "[Example 62, (4-(cyclopropanecarbonyl)piperazin-1-yl)(6-fluoro-4-(8-azaspiro[4.5]decan-8-yl)quinolin-3-yl)methanone]", "IC50": "> 10000"}
